# Source: patent US20250019370A1, “L-LYSINE SALT OF 4-CHLORO-5-[4-(2,6-DICHLOROPHENYL)SULFONYLPIPERAZIN-1-YL]-1-BENZOFURAN-2-CARBOXYLIC ACID AND VARIOUS FORMS THEREOF” (ENYO PHARMA, priority 2023, published 2025)
# Experiments:
# [1] = Dynamic Vapor Sorption (DVS) analysis (gas water sorption); assay type: physicochemical; conditions: for water uptake (DVS): 25° C./60% RH; for hygroscopicity (DVS): hygroscopic above 2% mass gain at 25° C./60% RH
# Method: The dynamic vapor sorption (DVS) analysis (gas water sorption) was performed on a DVS-Intrinsic incubator (SMS Ltd), equipped with DVS-Intrinsic Control Software 1.0. The sample, placed in an aluminium basket holder, was submitted to a full-cycle analysis (sorption followed by desorption cycle) under the following conditions:
# The sample was first pre-dried under a stream of dry air until a stabilized sample mass was observed. Then, the relative humidity was increased by 5% increments. At each step, the sample mass was allowed to increase until equilibrium is reached (according to a given dm/dt target), and then a new relative humidity rise occurred. Relative humidity was ramped up to 95%. After equilibration at this point, desorption began in a similar stepwise manner, with sample mass decrease again allowed to stabilize after each incremental humidity decrease.
# With both segments of the above-described method, the sample mass recording allowed describing of the whole vapor water sorption/desorption behaviour versus relative humidity.
# [2] = Polymorph screening (solids analysed by XRPD); assay type: physicochemical; conditions: form I as starting material
# Method: A polymorph screening was performed on EYP001 L-lysine salt crystalline form I (form I as starting material unless otherwise specified).
# A number of unique materials with different patterns were produced, including crystalline forms I-IV and an amorphous material. All solids from the screening experiments were analysed by XRPD analysis and the resulting patterns compared to that of the reference. The observed solids and their ways of obtention are described in Table 16.
# [3] = listed as EYP001 L-lysine salt (Sample A)
# [4] = listed as EYP001 L-lysine salt (form I)
# [5] = Entry 1: no solvent, 23% RH stress
# [6] = Entry 2: no solvent, 40° C./75% RH stress
# [7] = Entry 3: no solvent, 59% RH stress
# [8] = Entry 7: no solvent, melt quench
# [9] = Entry 8: no solvent, compression
# [10] = Entry 13: DMSO, slurry (20° C.)
# [11] = Entry 14: EtOAc, slurry (5° C.)
# [12] = Entry 15: water, slurry (5° C.)
# [13] = Entry 16: THF, flash evaporation
# [14] = Entry 17: THF, flash evaporation
# [15] = Entry 18: acetone, flash evaporation
# [16] = Entry 19: DMSO, flash evaporation
# [17] = Entry 20: EtOAc, flash evaporation
# [18] = Entry 21: IPA, flash evaporation
# [19] = Entry 22: water, flash evaporation
# [20] = Entry 23: MeOH, flash evaporation
# [21] = Entry 24: EtOH, flash evaporation
# [22] = Entry 25: heptane, flash evaporation
# [23] = Entry 26: EtOH, flash evaporation
# [24] = Entry 27: THF/water (82:18% v/v), flash evaporation
# [25] = Entry 29: acetone, slurry (5° C.)
# [26] = Entry 30: DMSO, slurry (20° C.)
# [27] = Entry 31: EtOAc, slurry (5° C.)
# [28] = Entry 33: water, slurry (5° C.)
# [29] = Entry 36: heptane, slurry (5° C.)
# [30] = Entry 37: THF/water (82:18% v/v), slurry (5° C.)
# [31] = Entry 39: acetone, slurry (60° C.)
# [32] = Entry 40: DMSO, slurry (60° C.)
# [33] = Entry 41: EtOAc, slurry (60° C.)
# [34] = Entry 43: water, slurry (60° C.)
# [35] = Entry 44: MeOH, slurry (60° C.)
# [36] = Entry 45: EtOH, slurry (60° C.)
# [37] = Entry 46: heptane, slurry (60° C.)
# [38] = Entry 47: EtOH /water (96:4% v/v), slurry (60° C.)
# [39] = Entry 49: acetone, vapour stress
# [40] = Entry 56: heptane, vapour stress
# [41] = Entry 58: THF/water (82:18% v/v), anti-solvent THF, vapour diffusion
# [42] = Entry 59: THF/water (82:18% v/v), anti-solvent IPA, vapour diffusion
# [43] = Entry 60: THF/water (82:18% v/v), anti-solvent EtOAc, vapour diffusion
# [44] = Entry 61: acetone/water (50:50% v/v), slow cool
# [45] = Entry 62: DMSO/water (80:20% v/v), slow cool
# [46] = Entry 64: IPA/water (80:20% v/v), slow cool
# [47] = Entry 65: MEOH/water (84:16% v/v), slow cool
# [48] = Entry 66: THF/water (82:18% v/v), slow cool
# [49] = Entry 67: THF/water (82:18% v/v), crash precipitation
# [50] = Entry 69: DMSO, anti-solvent EtOAc, crash precipitation
# [51] = Entry 70: THF/water (82:18% v/v), temperature cycle
# [52] = Entry 71: DMSO/water (80:20% v/v), temperature cycle
# [53] = Entry 72: MeOH/water (84:16% v/v), temperature cycle
smiles,measurement,setting,value
"NCCCC[C@H](N)C(=O)O.O=C(O)c1cc2c(Cl)c(N3CCN(S(=O)(=O)c4c(Cl)cccc4Cl)CC3)ccc2o1 [EYP001 L-lysine salt Form I, L-lysine salt of 4-chloro-5-[4-(2,6-dichlorophenyl)sulfonylpiperazin-1-yl]-1-benzofuran-2-carboxylic acid]",mass loss during preliminary drying phase,"[1]; 25° C./0% RH before sorption, listed as EYP001 L-lysine salt (Sample A)",no significant mass loss
same,water uptake (DVS),[1]; [3],0.4%
same,water uptake (DVS),[1]; [4],0.4%
same,water uptake upon sorption (DVS),"[1]; 25° C./95% RH, listed as EYP001 L-lysine salt (Sample A)",0.8%
same,final sample mass after full sorption-desorption cycle versus initial mass,[1]; back to 0% RH,roughly the same as the initial one
same,hygroscopicity (DVS),[1]; [3],non-hygroscopic
same,hygroscopicity (DVS),[1]; [4],non-hygroscopic
same,Results,[2]; [5],solid
same,XRPD,[2]; [5],Form I
same,Results,[2]; [6],solid
same,XRPD,[2]; [6],Form I
same,Results,[2]; [7],solid
same,XRPD,[2]; [7],Form I
same,Results,[2]; [8],solid
same,XRPD,[2]; [8],Amorphous
same,Results,[2]; [9],solid
same,XRPD,[2]; [9],Form I
same,Results,"[2]; Entry 10: no solvent, milling",solid
same,XRPD,"[2]; Entry 10: no solvent, milling",Amorphous
same,Results,"[2]; Entry 12: THF, slurry (50° C.)",solid
same,XRPD,"[2]; Entry 12: THF, slurry (50° C.)",Amorphous
same,Results,[2]; [10],solid
same,XRPD,[2]; [10],Form I
same,Results,[2]; [11],solid
same,XRPD,[2]; [11],Form I
same,Results,[2]; [12],solid
same,XRPD,[2]; [12],Form III
same,Results,[2]; [13],no solid
same,XRPD,[2]; [13],Amorphous
same,Results,[2]; [14],solid
same,XRPD,[2]; [14],Form II
same,Results,[2]; [15],solid
same,XRPD,[2]; [15],Amorphous
same,Results,[2]; [16],solid
same,XRPD,[2]; [16],Form I
same,Results,[2]; [17],solid
same,XRPD,[2]; [17],Amorphous
same,Results,[2]; [18],solid
same,XRPD,[2]; [18],Amorphous
same,Results,[2]; [19],solid
same,XRPD,[2]; [19],Form I
same,Results,[2]; [20],solid
same,XRPD,[2]; [20],Form I
same,Results,[2]; [21],solid
same,XRPD,[2]; [21],Form I
same,Results,[2]; [22],solid
same,XRPD,[2]; [22],Form II
same,Results,[2]; [23],solid
same,XRPD,[2]; [23],Form I
same,Results,[2]; [24],solid
same,XRPD,[2]; [24],Form I
same,Results,"[2]; Entry 28: THF, slurry (5° C.)",solid
same,XRPD,"[2]; Entry 28: THF, slurry (5° C.)",Form I
same,Results,[2]; [25],solid
same,XRPD,[2]; [25],Form I
same,Results,[2]; [26],solid
same,XRPD,[2]; [26],Amorphous
same,Results,[2]; [27],solid
same,XRPD,[2]; [27],Form I
same,Results,"[2]; Entry 32: IPA, slurry (5° C.)",solid
same,XRPD,"[2]; Entry 32: IPA, slurry (5° C.)",Form I
same,Results,[2]; [28],solid
same,XRPD,[2]; [28],Form III
same,Results,"[2]; Entry 34: MeOH, slurry (5° C.)",solid
same,XRPD,"[2]; Entry 34: MeOH, slurry (5° C.)",Form IV
same,Results,"[2]; Entry 35: EtOH, slurry (5° C.)",solid
same,XRPD,"[2]; Entry 35: EtOH, slurry (5° C.)",Form I
same,Results,[2]; [29],solid
same,XRPD,[2]; [29],Amorphous
same,Results,[2]; [30],solid
same,XRPD,[2]; [30],Form I
same,Results,"[2]; Entry 38: THF, slurry (60° C.)",solid
same,XRPD,"[2]; Entry 38: THF, slurry (60° C.)",Form I
same,Results,[2]; [31],solid
same,XRPD,[2]; [31],Amorphous
same,Results,[2]; [32],solid
same,XRPD,[2]; [32],Form I
same,Results,[2]; [33],solid
same,XRPD,[2]; [33],Form I
same,Results,"[2]; Entry 42: IPA, slurry (60° C.)",solid
same,XRPD,"[2]; Entry 42: IPA, slurry (60° C.)",Form I
same,Results,[2]; [34],solid
same,XRPD,[2]; [34],Form III
same,Results,[2]; [35],solid
same,XRPD,[2]; [35],Form I
same,Results,[2]; [36],solid
same,XRPD,[2]; [36],Form I
same,Results,[2]; [37],solid
same,XRPD,[2]; [37],Amorphous
same,Results,[2]; [38],solid
same,XRPD,[2]; [38],Form I
same,Results,"[2]; Entry 48: THF, vapour stress",solid
same,XRPD,"[2]; Entry 48: THF, vapour stress",Amorphous
same,Results,[2]; [39],solid
same,XRPD,[2]; [39],Amorphous
same,Results,"[2]; Entry 50: DMSO, vapour stress",solid
same,XRPD,"[2]; Entry 50: DMSO, vapour stress",Amorphous
same,Results,"[2]; Entry 51: EtOAc, vapour stress",solid
same,XRPD,"[2]; Entry 51: EtOAc, vapour stress",Form I
same,Results,"[2]; Entry 52: IPA, vapour stress",solid
same,XRPD,"[2]; Entry 52: IPA, vapour stress",Form I
same,Results,"[2]; Entry 53: water, vapour stress",solid
same,XRPD,"[2]; Entry 53: water, vapour stress",Form I
same,Results,"[2]; Entry 54: MeOH, vapour stress",solid
same,XRPD,"[2]; Entry 54: MeOH, vapour stress",Form I
same,Results,"[2]; Entry 55: EtOH, vapour stress",solid
same,XRPD,"[2]; Entry 55: EtOH, vapour stress",Form I
same,Results,[2]; [40],solid
same,XRPD,[2]; [40],Amorphous
same,Results,"[2]; Entry 57: THF/water (82:18% v/v), vapour stress",solution
same,Results,[2]; [41],solid
same,XRPD,[2]; [41],Form I
same,Results,[2]; [42],solid
same,XRPD,[2]; [42],Form I
same,Results,[2]; [43],solid
same,XRPD,[2]; [43],Form I
same,Results,[2]; [44],solid
same,XRPD,[2]; [44],Form I
same,Results,[2]; [45],solid
same,XRPD,[2]; [45],Form I
same,Results,"[2]; Entry 63: water, slow cool",solid
same,XRPD,"[2]; Entry 63: water, slow cool",Form III
same,Results,[2]; [46],solid
same,XRPD,[2]; [46],Form I
same,Results,[2]; [47],solid
same,XRPD,[2]; [47],Form I
same,Results,[2]; [48],solid
same,XRPD,[2]; [48],Form I
same,Results,[2]; [49],solid
same,XRPD,[2]; [49],Form I
same,Results,"[2]; Entry 68: DMSO, anti-solvent THF, crash precipitation",no solid
same,Results,[2]; [50],solid
same,XRPD,[2]; [50],Amorphous
same,Results,[2]; [51],solid
same,XRPD,[2]; [51],Form I
same,Results,[2]; [52],solid
same,XRPD,[2]; [52],Form I
same,Results,[2]; [53],solid
same,XRPD,[2]; [53],Form I
